From patent US9249125B2, “Pyrazole derivatives as p38 MAP inhibitors” (RESPIVERT LIMITED, priority 2012, dated 2016)

Tests used:
[1] = tested on: LPS-induced IL-8 release in d-U937 cells; experiment: LPS-induced IL-8 release in d-U937 cells; format: cell-based; details: Homo sapiens, dU937, read-out: LPS Induced Release of Cytokine in d-937 Cells IL-8 IC50
How it was run: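 Human monocytic U937 cells were differentiated to macrophage-type cells with PMA (100 ng/mL) for 48 to 72 hr, pre-treated with test compound for 2 hr, then stimulated 4 hr with E. coli O111:B4 LPS (0.1 μg/mL). Supernatant TNFα and IL-8 were measured by sandwich ELISA; REC50 came from concentration-response curves.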

[2] = target: Syk (Homo sapiens (Human), UniProt P43405); experiment: Syk enzyme inhibition (FRET, Z-LYTE); format: biochemical
How it was run: (§1)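 Z-LYTE FRET kinase assay: enzyme (3000 or 2000 ng/mL stock, respectively) preincubated 2 h at RT with compound (4–0.004 μg/mL stocks), then FRET peptide plus ATP (800 μM stock for c-Src, 60 μM for Syk) added for 1 h. Protease development 1 h; phosphorylation from coumarin/fluorescein emission ratio.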

[3] = tested on: LPS-induced TNFα release in d-U937 cells; experiment: LPS-induced TNFα release in d-U937 cells; format: cell-based; details: Homo sapiens, dU937, relative to 10 μg/mL BIRB796, read-out: LPS Induced Release of Cytokine in d-937 Cells TNFα REC50
How it was run: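 PMA-differentiated (100 ng/mL, 48–72 hr) U937 cells pre-incubated with compound 2 hr, then stimulated with LPS (0.1 μg/mL, E. coli O111:B4) for 4 hr. Supernatant TNFα and IL-8 measured by sandwich ELISA; inhibition versus vehicle control, REC50 from concentration-response curve.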

[4] = tested on: d-U937 cells; experiment: Cell viability: MTT assay; format: cell-based, human; details: 1 μg/mL
How it was run: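 MTT read-out (1 h, absorbance 550 nm) on d-U937 cells after pre-incubation with 1 or 10 μg/mL compound under two regimes: 4 h, 5% FCS, or 24 h, 10% FCS RPMI1640. Values are percent loss of viability relative to vehicle (0.5% DMSO), so increases are reported as negative.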

[5] = tested on: Poly I:C-induced ICAM-1 expression in BEAS2B cells; experiment: Poly I:C-induced ICAM-1 expression in BEAS2B cells; format: cell-based; details: Homo sapiens, BEAS-2B, read-out: Poly IC induced ICAM1 in BEAS2B IC50
How it was run: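 Cell-based ELISA read at 450 nm minus 655 nm, divided by crystal violet OD595 to normalize for cell number, gave ICAM-1 levels. Readout was taken 18 hr after poly I:C (1 μg/mL, Oligofectamine) transfection of human bronchial BEAS2B cells pretreated 2 hr with test compound.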

[6] = target: cSrc (Homo sapiens (Human), UniProt P12931); experiment: c-Src enzyme inhibition (FRET, Z-LYTE); format: biochemical
cSrc, sequence (P12931 whole entry, looked up): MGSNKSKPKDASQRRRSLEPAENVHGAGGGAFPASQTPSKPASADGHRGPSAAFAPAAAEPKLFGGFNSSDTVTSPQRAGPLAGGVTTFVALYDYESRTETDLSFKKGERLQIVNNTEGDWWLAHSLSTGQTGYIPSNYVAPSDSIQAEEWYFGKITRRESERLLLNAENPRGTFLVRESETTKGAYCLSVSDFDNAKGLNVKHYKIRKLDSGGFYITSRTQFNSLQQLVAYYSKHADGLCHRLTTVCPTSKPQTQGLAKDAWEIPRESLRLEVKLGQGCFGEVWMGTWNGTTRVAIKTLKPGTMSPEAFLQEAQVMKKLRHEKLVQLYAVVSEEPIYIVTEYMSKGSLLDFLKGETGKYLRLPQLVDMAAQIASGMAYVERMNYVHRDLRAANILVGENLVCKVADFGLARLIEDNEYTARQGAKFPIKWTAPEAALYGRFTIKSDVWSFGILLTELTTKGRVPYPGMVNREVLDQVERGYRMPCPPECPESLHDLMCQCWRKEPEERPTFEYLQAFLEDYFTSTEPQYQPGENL
How it was run: as §1

[7] = target: GSK3α (Homo sapiens (Human), UniProt P49840); experiment: GSK 3α enzyme inhibition (FRET, Z-LYTE); format: biochemical
GSK3α, sequence (P49840 whole entry): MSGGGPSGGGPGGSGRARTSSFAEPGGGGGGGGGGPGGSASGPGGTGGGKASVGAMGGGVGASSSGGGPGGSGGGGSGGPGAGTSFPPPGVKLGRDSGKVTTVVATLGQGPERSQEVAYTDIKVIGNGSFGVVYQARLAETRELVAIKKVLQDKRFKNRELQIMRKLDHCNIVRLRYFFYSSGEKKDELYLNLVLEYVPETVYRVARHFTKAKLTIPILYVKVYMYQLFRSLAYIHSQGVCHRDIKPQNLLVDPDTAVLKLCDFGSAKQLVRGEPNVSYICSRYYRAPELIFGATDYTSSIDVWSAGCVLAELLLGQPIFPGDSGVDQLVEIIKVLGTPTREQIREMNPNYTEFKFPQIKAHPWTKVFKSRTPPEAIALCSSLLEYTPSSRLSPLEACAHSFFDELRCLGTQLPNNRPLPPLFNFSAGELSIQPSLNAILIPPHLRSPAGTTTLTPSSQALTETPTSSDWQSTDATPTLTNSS
How it was run: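 Phosphorylation was read as the donor (coumarin) to acceptor (fluorescein) ratio after a 1 hr protease step destroying non-phosphorylated peptide. Before this, compound (4–0.004 μg/mL stocks) sat 2 hr at RT with GSK3α (500 ng/mL stock), followed by 1 hr kinase reaction with 8 μM peptide and 40 μM ATP stocks.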

SMILES	IC50 [1] [nM]	IC50 [2] [nM]	EC50 [3] [nM]	MTT Assay Cell viability at time point in d-U937 cells 4 h [4]	MTT Assay Cell viability at time point in d-U937 cells 24 h [4]	IC50 [5] [nM]	IC50 [6] [nM]	IC50 [7] [nM]
Cc1ccc(-n2nc(C(C)(C)C)cc2NC(=O)Nc2ccc(Oc3ccnc(Nc4ccc5ncsc5c4)n3)c3ccccc23)cc1 [Example 35, 1-(4-((2-(benzo[d]thiazol-6-ylamino)pyrimidin-4-yl)oxy)naphthalen-1-yl)-3-(3-(tert-butyl)-1-(p-tolyl)-1H-pyrazol-5-yl)urea]	22.2	> 1560	11	−ve (−ve and +ve indicate that the value is below and above respectively, the no significant effect threshold, defined as 30% inhibition at 1 μg/mL at the time point indicated.)	−ve (−ve and +ve indicate that the value is below and above respectively, the no significant effect threshold, defined as 30% inhibition at 1 μg/mL at the time point indicated.)	2.7	18	> 15600
Cc1ccc(-n2nc(C(C)(C)C)cc2NC(=O)Nc2ccc(Oc3ccnc(Nc4cccc5cc[nH]c45)n3)c3ccccc23)cc1 [Example 17]	7.4	280	8.7	−ve (−ve and +ve indicate that the value is below and above respectively, the no significant effect threshold, defined as 30% inhibition at 1 μg/mL at the time point indicated.)	−ve (−ve and +ve indicate that the value is below and above respectively, the no significant effect threshold, defined as 30% inhibition at 1 μg/mL at the time point indicated.)	8.4	138	> 16100
CC(C)(C)c1cc(NC(=O)Nc2ccc(Oc3ccnc(Nc4ccc5[nH]ncc5c4)n3)c3ccccc23)n(-c2ccc(OCCN3CCOCC3)cc2)n1 [Example 12, 1-(4-((2-((1H-Indazol-5-yl)amino)pyrimidin-4-yl)oxy)naphthalen-1-yl)-3-(3-(tert-butyl)-1-(4-(2-morpholinoethoxy)phenyl)-1H-pyrazol-5-yl)urea]	2	22	1.6	−ve (−ve and +ve indicate that the value is below and above respectively, the no significant effect threshold, defined as 30% inhibition at 1 μg/mL at the time point indicated.)	−ve (−ve and +ve indicate that the value is below and above respectively, the no significant effect threshold, defined as 30% inhibition at 1 μg/mL at the time point indicated.)	21.6	13	3890
Cc1ccc(-n2nc(C(C)(C)C)cc2NC(=O)Nc2ccc(Oc3cc(Nc4ccc5[nH]ncc5c4)ncn3)c3ccccc23)cc1 [Example 23, 1-(4-((6-((1H-indazol-5-yl)amino)pyrimidin-4-yl)oxy)naphthalen-1-yl)-3-(3-(tert-butyl)-1-(p-tolyl)-1H-pyrazol-5-yl)urea]	2.7	57	3.3	−ve (−ve and +ve indicate that the value is below and above respectively, the no significant effect threshold, defined as 30% inhibition at 1 μg/mL at the time point indicated.)	−ve (−ve and +ve indicate that the value is below and above respectively, the no significant effect threshold, defined as 30% inhibition at 1 μg/mL at the time point indicated.)	4.3	16	12500
Cc1cc(Nc2nccc(Oc3ccc(NC(=O)Nc4cc(C(C)(C)C)nn4-c4ccc(=O)n(CCN5CCOCC5)c4)c4ccccc34)n2)cc2cn[nH]c12 [Example 89, 1-(3-(tert-butyl)-1-(1-(2-morpholinoethyl)-6-oxo-1,6-dihydropyridin-3-yl)-1H-pyrazol-5-yl)-3-(4-((2-((7-methyl-1H-indazol-5-yl)amino)pyrimidin-4-yl)oxy)naphthalen-1-yl)urea]	28.8	3	10.8	−ve (−ve and +ve indicate that the value is below and above respectively, the no significant effect threshold, defined as 30% inhibition at 1 μg/mL at the time point indicated.)	+ve (−ve and +ve indicate that the value is below and above respectively, the no significant effect threshold, defined as 30% inhibition at 1 μg/mL at the time point indicated.)	17.1	< 1	2780
